Key:
[1] = molecular target: T1, human A1 AR (Homo sapiens, UniProt P30542); test: Radioligand binding assay at human A1 AR vs. [^3H]CCPA; details: human (h); CHO cell membranes; n = 3
T1 construct: expressed in transfected cells; host or cells: CHO cells
T1 sequence (P30542 1-326): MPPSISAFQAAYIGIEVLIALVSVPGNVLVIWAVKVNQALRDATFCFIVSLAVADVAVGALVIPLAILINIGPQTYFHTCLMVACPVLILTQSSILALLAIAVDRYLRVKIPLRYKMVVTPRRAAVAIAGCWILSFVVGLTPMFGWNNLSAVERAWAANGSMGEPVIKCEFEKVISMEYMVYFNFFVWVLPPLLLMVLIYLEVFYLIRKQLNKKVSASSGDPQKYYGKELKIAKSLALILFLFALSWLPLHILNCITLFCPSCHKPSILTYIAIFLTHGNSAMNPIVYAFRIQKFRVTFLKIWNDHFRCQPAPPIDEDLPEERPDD
Method: (§1) Membrane preparations and radioligand binding assays at rat A1 (rat brain cortex) and rat A2A ARs (rat brain striatum) were performed as previously described (Ozola et al., [2003]; Alnouri et al., [2015]). For assays at human A1, A2A, A2B, and A3 ARs, CHO cell membranes expressing one of the human AR subtypes were used as previously reported (Klotz et al., [1998]; Alnouri et al., [2015]; De Filippo et al., [2016]).
(§2) The synthesized tetrahydropyrazino[2,1-f ]purinediones 13–20 were evaluated in radioligand binding assays for their affinity to A1 ARs of rat brain cortical membrane and to A2A ARs of rat brain striatal membrane preparations. Selected compounds were further investigated for their affinity to human A1 and A2A ARs recombinantly expressed in Chinese hamster ovary (CHO) cells. All compounds were additionally investigated for their affinity to human A2B and A3 ARs recombinantly expressed in CHO cells to determine their AR subtype selectivity. […] It is well known that all xanthine derivatives lacking a ribose moiety, including tricyclic compounds, can only block ARs, but never act as AR agonists; therefore, additional functional studies were not required. […] Potent MAO-B inhibitors were additionally investigated for inhibition of human MAO-A to assess their selectivity. Results are presented in Tables 1–6, and data of standard ligands are included for comparison.

[2] = molecular target: T2, rat A1 AR (Rattus norvegicus, UniProt P25099); test: Radioligand binding assay at rat A1 AR (rat brain cortex) vs. [^3H]CCPA; details: rat (r); rat brain cortex; n = 3
T2 construct: A1 ARs of rat brain cortical membrane; from tissue; host or cells: rat brain cortex membranes
T2 sequence (P25099 1-326): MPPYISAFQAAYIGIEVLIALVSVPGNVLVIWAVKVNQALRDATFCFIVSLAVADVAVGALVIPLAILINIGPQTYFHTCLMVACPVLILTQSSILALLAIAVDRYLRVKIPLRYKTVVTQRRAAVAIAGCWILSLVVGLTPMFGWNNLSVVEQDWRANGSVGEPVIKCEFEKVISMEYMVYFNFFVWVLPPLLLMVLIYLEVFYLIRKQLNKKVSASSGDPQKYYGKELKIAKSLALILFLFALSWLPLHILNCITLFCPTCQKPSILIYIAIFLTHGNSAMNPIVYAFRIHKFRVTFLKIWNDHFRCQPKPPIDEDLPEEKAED
Method: as §1, §2

[3] = molecular target: T3, rat A2A AR (Rattus norvegicus, UniProt P30543); test: Radioligand binding assay at rat A2A AR (rat brain striatum) vs. [^3H]MSX-2; details: rat (r); for Ki: rat brain striatum, n = 3, read-out: Ki ± SEM, A2A vs. [^3H]MSX-2
T3 construct: A2A ARs of rat brain striatal membrane preparations; from tissue; host or cells: rat brain striatum membranes
T3 sequence (P30543 whole entry): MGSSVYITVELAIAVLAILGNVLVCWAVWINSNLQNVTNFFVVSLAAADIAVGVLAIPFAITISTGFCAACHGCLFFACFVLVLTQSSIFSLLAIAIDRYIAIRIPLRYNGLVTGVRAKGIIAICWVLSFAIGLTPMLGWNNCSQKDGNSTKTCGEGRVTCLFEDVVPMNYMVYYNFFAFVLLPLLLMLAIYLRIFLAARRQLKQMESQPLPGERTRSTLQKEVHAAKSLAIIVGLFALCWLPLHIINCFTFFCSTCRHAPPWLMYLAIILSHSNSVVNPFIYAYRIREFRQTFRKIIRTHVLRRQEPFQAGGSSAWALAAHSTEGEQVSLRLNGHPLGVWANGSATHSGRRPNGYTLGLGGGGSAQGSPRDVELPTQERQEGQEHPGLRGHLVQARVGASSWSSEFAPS
Method: as §1, §2

[4] = molecular target: T4, human A2B AR (Homo sapiens, UniProt P29275); test: Radioligand binding assay at human A2B AR vs. [^3H]PSB-603; details: for Ki: CHO cell membranes, n = 2 (n = 3 where marked a), read-out: Ki ± SEM, A2B vs. [^3H]PSB-603; for inhibition at 1 µM: at 1,000 nM, read-out: % inhibition of radioligand binding at indicated concentration, A2B vs. [^3H]PSB-603
T4 construct: expressed in transfected cells; host or cells: CHO cells
T4 sequence (P29275 1-332): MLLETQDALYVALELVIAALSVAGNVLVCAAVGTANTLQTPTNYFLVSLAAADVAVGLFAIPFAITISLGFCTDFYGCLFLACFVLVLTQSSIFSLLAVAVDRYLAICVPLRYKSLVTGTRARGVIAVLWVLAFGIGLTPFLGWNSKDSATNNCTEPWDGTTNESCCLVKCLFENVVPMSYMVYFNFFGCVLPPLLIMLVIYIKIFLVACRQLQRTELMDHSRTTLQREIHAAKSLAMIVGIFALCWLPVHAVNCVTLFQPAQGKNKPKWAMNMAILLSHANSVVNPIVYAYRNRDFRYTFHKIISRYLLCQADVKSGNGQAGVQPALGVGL
Method: as §1, §2

[5] = molecular target: T5, human A3 AR (Homo sapiens, UniProt P0DMS8); test: Radioligand binding assay at human A3 AR vs. [^3H]PSB-11; details: for Ki: CHO cell membranes, n = 2 (n = 3 where marked a), read-out: Ki ± SEM, A3 vs. [^3H]PSB-11
T5 construct: expressed in transfected cells; host or cells: CHO cells
T5 sequence (P0DMS8 1-318): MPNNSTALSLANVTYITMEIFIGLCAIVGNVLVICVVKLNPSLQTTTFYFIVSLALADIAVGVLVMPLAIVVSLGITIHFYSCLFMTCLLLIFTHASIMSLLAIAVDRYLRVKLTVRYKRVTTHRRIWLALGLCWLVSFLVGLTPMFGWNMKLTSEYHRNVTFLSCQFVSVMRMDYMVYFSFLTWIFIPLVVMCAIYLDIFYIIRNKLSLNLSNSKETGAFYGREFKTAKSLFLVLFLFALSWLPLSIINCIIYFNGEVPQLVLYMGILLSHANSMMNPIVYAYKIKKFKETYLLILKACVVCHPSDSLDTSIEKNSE
Method: as §1, §2

[6] = molecular target: T6, recombinant human MAO-A (Homo sapiens, UniProt P21397); test: Monoamine oxidase assay (Amplex Red), MAO-A; format: biochemical; details: for inhibition at 10 µM: at 10,000 nM, read-out: % inhibition at indicated concentration, Human MAO-A; for IC50: n = 3, read-out: IC50 ± SEM, Human MAO-A
T6 construct: purchased Sigma-Aldrich M7316; host or cells: baculovirus-infected insect cells
T6 sequence (P21397 1-527): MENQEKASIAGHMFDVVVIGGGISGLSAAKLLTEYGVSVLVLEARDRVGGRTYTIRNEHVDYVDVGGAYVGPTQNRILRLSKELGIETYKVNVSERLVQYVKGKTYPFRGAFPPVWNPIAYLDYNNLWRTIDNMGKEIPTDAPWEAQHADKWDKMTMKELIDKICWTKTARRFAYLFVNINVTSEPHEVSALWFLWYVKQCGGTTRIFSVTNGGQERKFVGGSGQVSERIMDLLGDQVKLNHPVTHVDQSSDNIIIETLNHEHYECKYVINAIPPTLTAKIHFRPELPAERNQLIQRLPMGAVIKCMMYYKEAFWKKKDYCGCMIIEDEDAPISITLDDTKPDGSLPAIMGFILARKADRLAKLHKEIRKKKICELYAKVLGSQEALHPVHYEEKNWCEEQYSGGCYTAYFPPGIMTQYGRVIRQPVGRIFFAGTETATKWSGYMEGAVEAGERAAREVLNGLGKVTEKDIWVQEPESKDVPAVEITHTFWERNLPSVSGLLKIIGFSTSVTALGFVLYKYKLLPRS
Method: (§3) The determination of MAO-A and MAO-B inhibition was performed using commercially available recombinant human MAO-A and MAO-B enzymes expressed in baculovirus-infected insects sells (Sigma-Aldrich, M7316 and M7441) applying the commercially available Amplex® Red monoamine oxidase assay kit (Invitrogen A12214). The assays were performed as previously described. The determination of rat MAO-B inhibition was performed using mitochondrial-enriched fractions from male Sprague Dawley rat livers. […]

[7] = molecular target: T7, recombinant human MAO-B (Homo sapiens, UniProt P27338); test: Monoamine oxidase assay (Amplex Red), MAO-B; format: biochemical; details: for inhibition at 10 µM: at 10,000 nM (10 μM), read-out: % inhibition at indicated concentration, Human MAO-B; for IC50: n = 3, read-out: IC50 ± SEM, Human MAO-B
T7 construct: purchased Sigma-Aldrich M7441; host or cells: baculovirus-infected insect cells
T7 sequence (P27338 1-520): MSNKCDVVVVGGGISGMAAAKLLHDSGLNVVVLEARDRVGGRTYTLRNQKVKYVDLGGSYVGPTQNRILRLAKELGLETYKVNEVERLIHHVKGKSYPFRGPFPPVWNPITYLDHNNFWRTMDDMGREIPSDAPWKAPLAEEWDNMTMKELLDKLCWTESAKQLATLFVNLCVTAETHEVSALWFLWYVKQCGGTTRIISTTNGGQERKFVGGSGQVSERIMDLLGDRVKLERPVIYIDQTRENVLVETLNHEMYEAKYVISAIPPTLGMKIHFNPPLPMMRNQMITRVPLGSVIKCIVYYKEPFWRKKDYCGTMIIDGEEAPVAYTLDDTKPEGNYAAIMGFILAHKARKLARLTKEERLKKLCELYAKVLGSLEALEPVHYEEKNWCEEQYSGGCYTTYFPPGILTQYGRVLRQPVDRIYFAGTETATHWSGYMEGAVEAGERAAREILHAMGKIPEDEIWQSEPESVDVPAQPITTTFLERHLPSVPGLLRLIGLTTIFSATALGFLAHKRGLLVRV
Method: as §3

[8] = molecular target: T8, human A2A AR (Homo sapiens, UniProt P29274); test: Radioligand binding assay at human A2A AR vs. [^3H]MSX-2; details: CHO cell membranes, n = 3, read-out: Ki ± SEM, A2A vs. [^3H]MSX-2
T8 construct: expressed in transfected cells; host or cells: CHO cells
T8 sequence (P29274 whole entry): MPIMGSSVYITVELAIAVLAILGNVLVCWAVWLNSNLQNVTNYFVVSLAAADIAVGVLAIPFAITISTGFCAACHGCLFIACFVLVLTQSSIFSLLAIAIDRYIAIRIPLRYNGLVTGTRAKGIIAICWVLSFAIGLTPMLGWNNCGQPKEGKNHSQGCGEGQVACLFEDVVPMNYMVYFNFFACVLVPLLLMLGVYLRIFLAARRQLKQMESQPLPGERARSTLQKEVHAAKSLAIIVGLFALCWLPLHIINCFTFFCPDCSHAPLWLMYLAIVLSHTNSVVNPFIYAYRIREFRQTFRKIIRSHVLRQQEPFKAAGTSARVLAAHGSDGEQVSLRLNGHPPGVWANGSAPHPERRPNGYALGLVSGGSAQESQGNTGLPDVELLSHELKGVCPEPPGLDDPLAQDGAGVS
Method: as §1, §2

Ki [1] [µM] | Ki [2] [µM] | % inhibition of radioligand binding at indicated concentration, A2A vs. [^3H]MSX-2 ([3]; at 1,000 nM) [%] | Ki [3] [µM] | Ki [4] [µM] | inhibition at 1 µM [4] [%] | Ki [5] [µM] | inhibition at 10 µM [6] [%] | inhibition at 10 µM [7] [%] | Ki [8] [µM] | inhibition at 1 µM ([5]; at 1,000 nM, read-out: % inhibition of radioligand binding at indicated concentration, A3 vs. [^3H]PSB-11) [%] | IC50 [6] [µM] | IC50 [7] [µM] | SMILES
0.129 ± 0.022 | 0.588 ± 0.028 | 40 | > 1 | > 1 | 32 | 7.18 | 6 | 67 |  |  |  |  | CCn1c(=O)c2c(nc3n2CCN(Cc2ccc(Cl)c(C(F)(F)F)c2)C3)n(CC)c1=O [Compound 15p, 8-(4-chloro-3-(trifluoromethyl)benzyl)-1,3-diethyl-6,7,8,9-tetrahydropyrazino[2,1-f]purine-2,4(1H,3H)-dione]
 | 0.054 ± 0.0091 |  | 1.14 | > 1 | 39 | > 1 | 25 |  | 4.42 | 12 | > 10 | 6.51 | CCn1c(=O)c2c(nc3n2CCN(Cc2ccc(Br)cc2)C3)n(CC)c1=O [Compound 15e, 8-(4-bromobenzyl)-1,3-diethyl-6,7,8,9-tetrahydropyrazino[2,1-f]purine-2,4(1H,3H)-dione]
0.298 ± 0.052 | 0.0362 ± 0.0099 |  | 0.981 ± 0.116 | > 1 | 1 | 15.6 | 19 |  |  |  | > 10 | 3.74 | CCn1c(=O)c2c(nc3n2CCN(Cc2cc(F)cc(Cl)c2)C3)n(C)c1=O [Compound 14n, 8-(3-chloro-5-fluorobenzyl)-3-ethyl-1-methyl-6,7,8,9-tetrahydropyrazino[2,1-f]purine-2,4(1H,3H)-dione]
0.156 ± 0.005 | 0.032 ± 0.0009 |  | 2 | > 1 | 12 | 7.82 |  | 22 |  |  |  | > 10 | CCn1c(=O)c2c(nc3n2CCN(Cc2ccccc2F)C3)n(CC)c1=O [Compound 15a, 1,3-diethyl-8-(2-fluorobenzyl)-6,7,8,9-tetrahydropyrazino[2,1-f]purine-2,4(1H,3H)-dione]

From PMC6028563, “Probing Substituents in the 1- and 3-Position: Tetrahydropyrazino-Annelated Water-Soluble Xanthine Derivatives as Multi-Target Drugs With Potent Adenosine Receptor Antagonistic Activity” (Frontiers in Chemistry, 2018)
